According to ChEMBL document CHEMBL1909629, “Discovery of novel 3,5-disubstituted indole derivatives as potent inhibitors of Pim-1, Pim-2, and Pim-3 protein kinases” (Bioorg Med Chem Lett, 2011):

Experiments:
[1] = biological target: Serine/threonine-protein kinase pim-1 (Homo sapiens, UniProt P11309); assay: Inhibition of PIM1 using BAD peptide as substrate preincubated for 15 mins measured after 60 to 100 mins by luminescence assay
[2] = biological target: Serine/threonine-protein kinase pim-3 (Homo sapiens, UniProt Q86V86); assay: Inhibition of PIM3 using BAD peptide as substrate preincubated for 15 mins measured after 60 to 100 mins by luminescence assay
[3] = biological target: Serine/threonine-protein kinase pim-2 (Homo sapiens, UniProt Q9P1W9); assay: Inhibition of PIM2 using BAD peptide as substrate preincubated for 15 mins measured after 60 to 100 mins by luminescence assay
[4] = biological target: T1, Receptor-type tyrosine-protein kinase FLT3 (Homo sapiens, UniProt P36888); assay: Inhibition of FLT3
T1 sequence (P36888 whole entry): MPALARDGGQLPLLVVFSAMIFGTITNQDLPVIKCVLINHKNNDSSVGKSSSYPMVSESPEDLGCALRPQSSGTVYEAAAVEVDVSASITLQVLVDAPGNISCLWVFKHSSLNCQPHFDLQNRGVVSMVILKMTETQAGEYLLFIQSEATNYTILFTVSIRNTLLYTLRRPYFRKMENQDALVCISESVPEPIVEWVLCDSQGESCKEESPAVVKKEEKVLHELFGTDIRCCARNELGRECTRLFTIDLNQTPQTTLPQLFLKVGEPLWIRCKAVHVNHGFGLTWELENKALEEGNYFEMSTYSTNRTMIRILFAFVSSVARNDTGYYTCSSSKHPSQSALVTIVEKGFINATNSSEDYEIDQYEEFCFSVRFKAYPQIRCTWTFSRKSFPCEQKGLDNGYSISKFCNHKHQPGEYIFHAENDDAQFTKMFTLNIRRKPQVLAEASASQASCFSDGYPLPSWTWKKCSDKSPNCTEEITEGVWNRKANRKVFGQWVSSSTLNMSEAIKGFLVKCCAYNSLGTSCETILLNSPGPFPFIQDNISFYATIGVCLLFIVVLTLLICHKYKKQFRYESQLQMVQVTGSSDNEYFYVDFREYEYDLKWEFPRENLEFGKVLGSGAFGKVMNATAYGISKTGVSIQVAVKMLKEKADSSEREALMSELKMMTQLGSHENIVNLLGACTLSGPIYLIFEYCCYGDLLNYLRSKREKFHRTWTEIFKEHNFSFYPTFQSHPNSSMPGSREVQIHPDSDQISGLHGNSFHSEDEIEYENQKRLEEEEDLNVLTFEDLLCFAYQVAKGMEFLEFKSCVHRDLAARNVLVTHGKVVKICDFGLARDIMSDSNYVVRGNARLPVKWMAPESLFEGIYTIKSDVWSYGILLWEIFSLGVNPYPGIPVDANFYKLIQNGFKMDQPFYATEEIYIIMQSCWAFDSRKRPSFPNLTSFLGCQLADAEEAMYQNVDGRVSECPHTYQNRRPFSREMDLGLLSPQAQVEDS

[5] = Inhibition of PDGFR
[6] = biological target: Mast/stem cell growth factor receptor Kit (Homo sapiens, UniProt P10721); assay: Inhibition of cKIT
[7] = biological target: Vascular endothelial growth factor receptor 2 (Homo sapiens, UniProt P35968); assay: Inhibition of KDR
Vascular endothelial growth factor receptor 2, sequence (P35968 whole entry): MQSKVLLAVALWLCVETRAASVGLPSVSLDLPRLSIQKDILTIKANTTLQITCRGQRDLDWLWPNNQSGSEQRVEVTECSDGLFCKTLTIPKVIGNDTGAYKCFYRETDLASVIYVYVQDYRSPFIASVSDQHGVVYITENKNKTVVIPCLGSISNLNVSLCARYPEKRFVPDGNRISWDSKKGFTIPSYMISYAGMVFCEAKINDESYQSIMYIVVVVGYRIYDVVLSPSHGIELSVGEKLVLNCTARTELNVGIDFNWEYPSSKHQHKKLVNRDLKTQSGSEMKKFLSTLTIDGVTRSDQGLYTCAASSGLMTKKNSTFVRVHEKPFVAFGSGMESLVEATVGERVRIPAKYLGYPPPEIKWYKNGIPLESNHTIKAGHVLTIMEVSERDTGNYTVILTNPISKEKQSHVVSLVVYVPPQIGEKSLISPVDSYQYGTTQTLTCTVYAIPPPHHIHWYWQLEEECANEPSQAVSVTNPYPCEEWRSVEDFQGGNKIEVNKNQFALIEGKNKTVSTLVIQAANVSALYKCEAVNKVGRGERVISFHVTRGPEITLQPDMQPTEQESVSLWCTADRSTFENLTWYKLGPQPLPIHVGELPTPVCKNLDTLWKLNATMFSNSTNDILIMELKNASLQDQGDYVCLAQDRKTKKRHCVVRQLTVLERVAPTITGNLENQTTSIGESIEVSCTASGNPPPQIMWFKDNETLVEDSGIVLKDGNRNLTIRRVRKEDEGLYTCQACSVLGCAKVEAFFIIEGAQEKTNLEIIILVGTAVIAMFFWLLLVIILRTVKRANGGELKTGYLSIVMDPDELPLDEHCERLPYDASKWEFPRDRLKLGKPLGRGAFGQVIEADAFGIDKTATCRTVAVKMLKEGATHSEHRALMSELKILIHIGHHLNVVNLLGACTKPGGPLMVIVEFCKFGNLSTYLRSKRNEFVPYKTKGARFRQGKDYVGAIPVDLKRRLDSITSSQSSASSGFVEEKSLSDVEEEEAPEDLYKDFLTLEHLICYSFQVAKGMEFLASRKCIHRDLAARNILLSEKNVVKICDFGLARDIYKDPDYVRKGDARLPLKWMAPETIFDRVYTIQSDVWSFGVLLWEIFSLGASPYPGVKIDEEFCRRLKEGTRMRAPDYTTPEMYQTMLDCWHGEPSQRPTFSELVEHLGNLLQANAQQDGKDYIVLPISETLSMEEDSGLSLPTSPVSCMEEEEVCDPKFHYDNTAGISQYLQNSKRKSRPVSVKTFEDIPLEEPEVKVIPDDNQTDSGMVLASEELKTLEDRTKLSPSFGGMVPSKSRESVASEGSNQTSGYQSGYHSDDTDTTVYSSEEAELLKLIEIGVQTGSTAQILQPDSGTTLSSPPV

Serine/threonine-protein kinase pim-1, sequence (P11309 whole entry): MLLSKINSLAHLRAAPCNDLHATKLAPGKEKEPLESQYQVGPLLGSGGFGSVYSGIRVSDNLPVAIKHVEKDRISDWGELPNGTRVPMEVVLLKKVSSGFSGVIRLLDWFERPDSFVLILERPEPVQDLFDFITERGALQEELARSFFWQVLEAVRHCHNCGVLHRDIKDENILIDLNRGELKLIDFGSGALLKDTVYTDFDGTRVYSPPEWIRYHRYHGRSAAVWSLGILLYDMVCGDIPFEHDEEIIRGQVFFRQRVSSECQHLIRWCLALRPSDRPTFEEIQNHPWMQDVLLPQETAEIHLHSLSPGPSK
Mast/stem cell growth factor receptor Kit, sequence (P10721 whole entry): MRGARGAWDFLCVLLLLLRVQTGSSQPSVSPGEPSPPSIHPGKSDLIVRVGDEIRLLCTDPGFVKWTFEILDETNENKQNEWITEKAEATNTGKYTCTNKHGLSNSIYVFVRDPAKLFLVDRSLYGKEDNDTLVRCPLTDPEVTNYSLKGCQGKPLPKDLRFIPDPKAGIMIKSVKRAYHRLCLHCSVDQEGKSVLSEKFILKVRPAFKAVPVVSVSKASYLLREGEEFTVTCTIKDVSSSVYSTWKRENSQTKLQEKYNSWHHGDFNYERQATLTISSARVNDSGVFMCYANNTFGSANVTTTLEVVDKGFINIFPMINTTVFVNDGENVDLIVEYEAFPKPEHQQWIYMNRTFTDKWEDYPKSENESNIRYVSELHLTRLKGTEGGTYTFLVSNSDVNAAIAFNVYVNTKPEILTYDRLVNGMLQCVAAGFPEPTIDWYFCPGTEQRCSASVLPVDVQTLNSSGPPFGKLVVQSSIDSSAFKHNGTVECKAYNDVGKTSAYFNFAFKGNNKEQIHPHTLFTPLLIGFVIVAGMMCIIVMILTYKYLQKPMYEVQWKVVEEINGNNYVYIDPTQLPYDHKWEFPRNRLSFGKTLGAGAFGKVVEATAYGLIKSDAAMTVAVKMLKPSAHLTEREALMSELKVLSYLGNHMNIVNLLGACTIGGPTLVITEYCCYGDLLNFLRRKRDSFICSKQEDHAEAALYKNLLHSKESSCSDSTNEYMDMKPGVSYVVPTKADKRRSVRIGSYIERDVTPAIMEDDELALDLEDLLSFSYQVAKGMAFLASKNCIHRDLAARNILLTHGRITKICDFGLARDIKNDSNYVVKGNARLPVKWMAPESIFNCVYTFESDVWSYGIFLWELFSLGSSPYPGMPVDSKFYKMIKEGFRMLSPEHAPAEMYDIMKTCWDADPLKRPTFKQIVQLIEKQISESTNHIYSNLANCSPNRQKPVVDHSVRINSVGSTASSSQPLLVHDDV
Serine/threonine-protein kinase pim-2, sequence (Q9P1W9 whole entry): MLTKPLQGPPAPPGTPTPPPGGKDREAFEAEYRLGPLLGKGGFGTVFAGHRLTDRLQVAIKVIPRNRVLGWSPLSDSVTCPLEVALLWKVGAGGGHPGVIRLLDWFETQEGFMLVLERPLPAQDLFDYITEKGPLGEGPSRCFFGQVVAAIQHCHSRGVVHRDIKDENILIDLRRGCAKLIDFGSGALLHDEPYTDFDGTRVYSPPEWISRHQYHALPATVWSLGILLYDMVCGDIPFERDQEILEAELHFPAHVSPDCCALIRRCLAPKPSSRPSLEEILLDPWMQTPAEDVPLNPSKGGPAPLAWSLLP

In the case of `c1cnc(-c2ccc3[nH]cc(-c4ccc(N5CCNCC5)cc4)c3c2)cn1`, the IC50 [1] is reported as 530 nM, the IC50 [2] is reported as 960 nM and the IC50 [3] is reported as 13600 nM.
Work on `Nc1cc(-c2ccc3c(-c4ccc(N5CCNCC5)cc4)n[nH]c3n2)ccn1` yielded an IC50 [1] of 170 nM, an IC50 [2] of 1800 nM and an IC50 [3] of 20000 nM.
With `c1cc(-c2ccc3[nH]cc(-c4ccc(N5CCNCC5)cc4)c3c2)ccn1` the IC50 [1] was 2800 nM, the IC50 [2] was 5700 nM and the IC50 [3] was over 25000 nM.
Molecule `c1cc(-c2ccc3c(-c4ccc(N5CCNCC5)cc4)n[nH]c3n2)ccn1` has an IC50 [1] of 2500 nM, an IC50 [2] of 5800 nM and an IC50 [3] of over 25000 nM.
Molecule `Nc1ccc(-c2c[nH]c3ccc(-c4cncc(O[C@H]5CC[C@H](N)CC5)n4)cc23)c(F)n1` has an IC50 [1] of under 2 nM, an IC50 [2] of 5 nM and an IC50 [3] of 83 nM.
In the case of `Oc1ccc(-c2ccc3c(-c4ccc(N5CCNCC5)cc4)n[nH]c3n2)cc1`, the IC50 [4] is reported as 4 nM, the IC50 [5] is reported as 6 nM and the IC50 [1] is reported as 9 nM. For the same molecule, the IC50 [6] was 7 nM, the IC50 [2] was 12 nM and the IC50 [3] was 39 nM. For the same molecule, the IC50 [7] was 0.018 µM.
For `Nc1ccc(-c2c[nH]c3ccc(-c4cnccn4)cc23)c(F)n1`, the IC50 [1] was 250 nM, the IC50 [2] was 310 nM and the IC50 [3] was 5000 nM.
With `c1ncc(-c2ccc3[nH]cc(-c4ccc(N5CCNCC5)cc4)c3c2)cn1` the IC50 [1] was 2600 nM, the IC50 [2] was 3300 nM and the IC50 [3] was over 25000 nM.
For `Nc1ccc(-c2c[nH]c3ccc(-c4cncc(N5CCNCC5)n4)cc23)c(F)n1`, the IC50 [1] was under 2 nM, the IC50 [2] was 4 nM and the IC50 [3] was 61 nM.
`c1ccc(-c2ccc3c(-c4ccc(N5CCNCC5)cc4)n[nH]c3n2)cc1` gave an IC50 [1] of 1700 nM, an IC50 [2] of 7400 nM and an IC50 [3] of 7200 nM.
Molecule `NS(=O)(=O)c1ccc(-c2ccc3c(-c4ccc(N5CCNCC5)cc4)n[nH]c3n2)cc1` has an IC50 [1] of 11000 nM, an IC50 [2] of 10000 nM and an IC50 [3] of over 25000 nM.
With `CC(C)(C)[C@H](N)COc1cncc(-c2ccc3[nH]cc(-c4ccc(N)nc4F)c3c2)n1` the IC50 [1] was under 2 nM, the IC50 [2] was 10 nM and the IC50 [3] was 122 nM.
`CC[C@H](N)COc1cncc(-c2ccc3[nH]cc(-c4ccc(N)nc4F)c3c2)n1` showed an IC50 [1] of under 2 nM, an IC50 [2] of 5 nM and an IC50 [3] of 26 nM.
With `c1cncc(-c2ccc3[nH]cc(-c4ccc(N5CCNCC5)cc4)c3c2)c1` the IC50 [1] was 192 nM, the IC50 [2] was 490 nM and the IC50 [3] was 15000 nM.
For `Oc1ccc(-c2ccc3c(-c4ccc(N5CCNCC5)cc4)c[nH]c3n2)cc1`, the IC50 [4] was 111 nM, the IC50 [5] was 987 nM and the IC50 [1] was 30 nM. It also gave an IC50 [6] of 1110 nM, an IC50 [2] of 58 nM and an IC50 [3] of 283 nM. For the same molecule, the IC50 [7] was 4.76 µM.
Molecule `c1ccc(-c2ccc3[nH]cc(-c4ccc(N5CCNCC5)cc4)c3c2)nc1` has an IC50 [1] of 2100 nM, an IC50 [2] of 14000 nM and an IC50 [3] of over 25000 nM.
For `C[C@H](N)COc1cncc(-c2ccc3[nH]cc(-c4ccc(N)nc4F)c3c2)n1`, the IC50 [1] was under 2 nM, the IC50 [2] was under 2 nM and the IC50 [3] was 56 nM.
For `Nc1ccc(-c2c[nH]c3ccc(-c4cncc(OC[C@@H](N)c5ccccc5)n4)cc23)c(F)n1`, the IC50 [1] was under 2 nM, the IC50 [2] was under 2 nM and the IC50 [3] was 10 nM.
For `c1cc(-c2ccc3c(-c4ccc(N5CCNCC5)cc4)n[nH]c3n2)c2cc[nH]c2c1`, the IC50 [1] was 110 nM, the IC50 [2] was 260 nM and the IC50 [3] was 650 nM.
For `Oc1ccc(-c2ccc3c(-c4ccc(N5CCNCC5)cc4)c[nH]c3c2)cc1`, the IC50 [4] was over 25000 nM, the IC50 [1] was 4 nM and the IC50 [6] was over 25000 nM. It also gave an IC50 [2] of 22 nM, an IC50 [3] of 42 nM and an IC50 [7] of over 25 µM.
`Nc1ccc(-c2c[nH]c3ccc(-c4cncc(OC[C@H](N)c5ccccc5)n4)cc23)c(F)n1` showed an IC50 [1] of under 2 nM, an IC50 [2] of 5 nM and an IC50 [3] of 20 nM.
In the case of `Nc1ccc(-c2c[nH]c3ccc(-c4cncc(N5CCCC(N)C5)n4)cc23)c(F)n1` (stereo unspecified), the IC50 [1] is reported as under 2 nM, the IC50 [2] is reported as 3 nM and the IC50 [3] is reported as 81 nM.
`COc1ccc(-c2ccc3c(-c4ccc(N5CCNCC5)cc4)n[nH]c3n2)cc1` showed an IC50 [1] of 4900 nM, an IC50 [2] of 12800 nM and an IC50 [3] of over 25000 nM.
In the case of `CC(C)[C@H](N)COc1cncc(-c2ccc3[nH]cc(-c4ccc(N)nc4F)c3c2)n1`, the IC50 [1] is reported as under 2 nM, the IC50 [2] is reported as 6 nM and the IC50 [3] is reported as 72 nM.
`Nc1ccc(-c2ccc3c(-c4ccc(N5CCNCC5)cc4)n[nH]c3n2)cn1` gave an IC50 [1] of 15000 nM, an IC50 [2] of 12000 nM and an IC50 [3] of over 25000 nM.
